For data set [1], the system named is carrageenan paw edema in rats. In words: Carrageenan paw edema model in rats. The class given is in vivo, rat. To be noted: for paw weight: 3, 10 and 30 mg/kg oral, 2 h before carrageenan, 4 h after injection, FIG. 11; for ED50: Rattus norvegicus, oral, single dose, read-out: ED50 (paw weight); for activity compared with indomethacin: vs indomethacin 2 mg/kg (positive control). As for the experimental part: The rat carrageenan paw edema model of inflammation was utilized to evaluate the effectiveness of AR-13 and AR-14 in ameliorating swelling and inflammation.
Male Lewis rats (7-9 weeks of age; 10 per group) were acclimated for at least 7 days after arrival.
Acclimated animals were randomized into groups by body weight. Animals were treated orally with AR-13 or AR-14 (3, 10 or 30 mg/kg) or with a positive control (indomethacin, 2 mg/kg). After 2 hours, the animals were anesthetized with Isoflurane and given an intradermal injection of 1.2% carrageenan into the right hind footpad. Four hours after the carrageenan injection, the animals were sacrificed with carbon dioxide inhalation and both paws were removed at the medial malleolus and weighed. The difference in weight between the right (carrageenan) and left (normal) paws was calculated.
In general terms: In the carrageenan paw model, swelling and tenderness develop within hours.

For data set [2], the system named is type II collagen-induced arthritis in rats. In words: Established type II collagen-induced arthritis (CIA) in rats. The format is in vivo. As for the experimental part:
Type II collagen-induced arthritis (CIA) in rats is an experimental model of arthritis that has a number of pathologic, immunologic, and genetic features in common with rheumatoid arthritis.
Female Lewis rats (7-9 weeks of age; 8 per group for arthritis, 4 per group for normal control) were acclimated for 7 days after arrival.
Acclimated animals were anesthetized with Isoflurane. The disease was induced by immunization of the rats with type II collagen (equal mixture of 4 mg/mL bovine type II collagen in 0.01 N acetic acid and Freund's incomplete adjuvant) by injection (day 0). On day 6, the rats were anesthetized again for the second collagen injection. Each animal received 300 μL of the collagen mixture on days 0 and 6, which was spread over 3 sites on the back.
Caliper measurements of normal (pre-disease) right and left ankle joints were taken on day 9 post-collagen injection. On days 10-11, onset of arthritis occurred and rats were randomized into treatment groups. Randomization into each group was done after ankle joint swelling was established in at least one hind paw.
Once enrolled in the treatment groups, treatment with once daily oral dosing of AR-14 (1, 3, 10, 30 or 60 mg/kg) or indomethacin (1 mg/kg) was initiated. Animals receiving vehicle or compound were enrolled and daily dosing was initiated using a volume of 5 mL/kg for oral solutions. ENBREL (etanercept) treatment was on days 11 and 15 (10 mg/kg) by subcutaneous administration. Rats were weighed on days 11-18 and caliper measurements of ankles were taken every day. Final body weights were taken on day 19. On day 19, animals were euthanized, both hind paws and knees were removed, hind paws were weighed and then (with knees) placed in formalin.
Following 1-2 days in fixative and then 4-5 days in decalcifier, the ankle joints and knees were processed, embedded, sectioned and stained with toluidine blue.
A clinical scoring index was used to assess disease progression. Collagen arthritic ankles and knees were given scores of 0-5 for inflammation, pannus formation and bone resorption according to the criteria in Tables 1-7.
Clinical data for ankle joint diameter were analyzed by determining the area under the dosing curve (AUC). For calculation of AUC, the daily measurements of ankle joints (using a caliper) for each rat were entered into Microsoft Excel and the area between the treatment days after the onset of disease to the termination day was computed. Means for each group were determined and percent inhibition from arthritis controls was calculated by comparing values for treated and normal animals. Data were analyzed by the Mann Whitney or Student's t test. Paw weights and histologic parameters (mean±SE) for each group were analyzed for differences using the Mann Whitney or Student's t test. In both cases, significance was set at p≦0.05.
Percent inhibition of paw weight and AUC was calculated using the following formula: % Inhibition=A−(B/A)×100
wherein A=(Mean Disease Control−Mean Normal) and B=(Mean Treated−Mean Normal).

Data set [3] deals with adjuvant-induced arthritis in rats. In words: Adjuvant-induced arthritis (AIA) in rats. The format is in vivo. As for the experimental part:
Male Lewis rats (7-9 weeks of age; 8 per group for arthritis, 4 per group for normal control) were acclimated for 7 days after arrival.
Acclimated animals were randomized into groups by body weight and then anesthetized with Isoflurane and given lipoidal amine (LA) in Freund's complete adjuvant (100 μL injection of 7 mg LA, intradermal administration at the base of the tail, Day 0).
Caliper measurements of normal (pre-disease) right and left ankle joints were taken on day 7 post-adjuvant injection. On day 8, dosing began for vehicle and AR-14 treatment groups. Methotrexate treatment (0.075 mg/kg) began on day 0 prior to adjuvant injection.
Once enrolled in the treatment group, treatment with once daily oral doses of AR-14 (1, 3, 10 or 30 mg/kg) was initiated. […] Animals receiving vehicle or compound were enrolled and daily dosing was initiated using a volume of 5 mL/kg for oral solutions on days 8-14. Rats were weighed on days 8-14 and caliper measurements of ankles were taken every day. Final body weights and caliper measurements of ankles and paws were taken on day 15. On day 15, animals were euthanized, both hind paws were removed, and the hind paws weighed and then placed in formalin for histopathologic analyses. Spleens were also removed, weighed and placed in formalin for histopathologic analyses.

For data set [4], the system named is indomethacin-induced IBD in rats. In words: Indomethacin-induced inflammatory bowel disease (model of Crohn's disease) in rats. The class given is in vivo. The protocol:
This study evaluated AR-14 (PO, QD) in a model of Crohn's disease (indomethacin induced intestinal injury) in rats to determine if beneficial effects could be detected in this IBD model.
Rats received two subcutaneous administrations of indomethacin (7.5 mg/kg, in 5% NaHCO3) spaced 24 hours apart. Rats received once daily oral doses of vehicle, AR-14 (1, 3, 10 or 30 mg/kg) or dexamethasone (0.1 mg/kg). Rats were euthanized and evaluated for effects of treatment at day 4 post-initial indomethacin injection. Body weights were taken as well as intestinal weights per 10 cm of area at risk.
A clinical scoring index (Table 8) was used to assess disease progression. Intestines were scored for gross lesions and multiple sections of gut taken for histology (5 sections per rat spaced equally along area at risk).
Five equally spaced sections from area at risk were scored for necrosis and inflammation (0,0) (1,3) etc., according to the criteria in Tables 9 and 10.

Data set [5] relates to MEK. In words: MEK inhibition in vivo (stated in summary, no method given).
The mark [6] stands for this setting: 10 and 30 mg/kg vs dexamethasone 0.1 mg/kg.

Entries after “also recorded” stand apart in the source; their conditions may differ.

What is called ED50 is the midpoint of the dose-response relation.

Consider `O=C(NOCCO)c1cn2ccnc2c(Cl)c1Nc1ccc(Br)cc1F` [AR-13, 7-(4-bromo-2-fluorophenylamino)-8-chloroimidazo[1,2-a]pyridine-6-carboxylic acid (2-hydroxyethoxy)-amide], for which, in data set [1], the paw weight result was “significantly inhibit”, the ED50 was ~10 mg/kg and the “activity compared with indomethacin” value is “superior to the positive control indomethacin”.
As to `O=C(NOCCO)c1cn2ccnc2c(Cl)c1Nc1ccc(Br)cc1Cl` [AR-14, 7-(4-bromo-2-chlorophenylamino)-8-chloroimidazo[1,2-a]pyridine-6-carboxylic acid (2-hydroxyethoxy)-amide], in data set [2] (10 mg/kg once daily oral), the “progression of established disease (arthritis)” value is “stopped the progression; also recorded: significantly inhibited”. Moreover, the “ankle histopathology (joints)” value in data set [2] (10 mg/kg, after 7 days) was “Near normal joints with minimal inflammation”. Besides, the “established disease, improvement” value in data set [2] (60 mg/kg once daily oral) is “improvement to normal”. Further, in data set [2] (1 and 3 mg/kg, after 7 days, FIG. 3), the “pannus formation, cartilage damage and bone resorption (ankle histopathology)” value is given as “significantly inhibited”. Further, the “ankle histopathology compared with indomethacin or ENBREL” value in data set [2] (AR-14 10 mg/kg) was “significantly better than indomethacin or ENBREL”. In addition, the “activity on ankle diameter compared with ENBREL (etanercept)” value in data set [2] (AR-14 10 mg/kg vs ENBREL 10 mg/kg s.c.) is “better than that of ENBREL”. Besides, the “activity on ankle diameter compared with indomethacin” value in data set [2] (AR-14 10 mg/kg vs indomethacin 1 mg/kg) is “equivalent to indomethacin”. Also, the ED50 in data set [2] (Rattus norvegicus, 168 h, after 7 days, once daily oral, read-out: ED50 (inhibition of body weight loss)) was 4.57 mg/kg; in data set [1] it was ~4 mg/kg. The tolerability entry is “well tolerated” in data set [2] (all doses administered (1, 3, 10, 30, 60 mg/kg, once daily oral)); “well tolerated” in data set [3] (all doses administered (1, 3, 10, 30 mg/kg, once daily oral)); “well tolerated” in data set [4] (all doses administered). The “ankle swelling (ankle/paw diameter) compared to vehicle control” value in data set [2] (all doses tested (1-60 mg/kg), over 7 days, FIG. 1) is given as “significantly inhibited”. For the same compound, the body weight loss result in data set [2] (all doses tested, after 7 days, FIG. 2) was “significantly inhibited”; in data set [3] (30 mg/kg, after 15 days, FIG. 5), “significantly inhibited”. The joint destruction result in data set [2] (dose of 1 mg/kg, 1 mg/kg) is listed as “significantly inhibited; also recorded: significant inhibition”. Also, in data set [2] (doses of 30 and 60 mg/kg, after 7 days), the body weight result is on record as “near normal body weights”. In addition, the “acute gross and microscopic inflammation” value in data set [2] (once daily oral 10 mg/kg) and in data set [3] (once daily oral 30 mg/kg) was “reversal” each time. Further, the “progression of established disease” value in data set [3] (30 mg/kg) was “stopped the progression of established disease and causes improvement to normal”. Further, the “joints (paw weight study)” value in data set [3] (30 mg/kg, after 15 days, comparable to methotrexate) is listed as “Near normal joints with minimal inflammation”. The “splenomegaly (relative spleen weight)” value in data set [3] (3, 10 and 30 mg/kg, after 15 days, FIG. 7) is recorded as “significantly inhibited”. Also, the “inhibition of splenomegaly compared with methotrexate” value in data set [3] (10 and 30 mg/kg) is reported as “comparable to that seen with methotrexate”. Moreover, in data set [3] (AR-14 30 mg/kg vs methotrexate 0.075 mg/kg), the “activity compared with methotrexate” value is “equivalent to methotrexate”. Besides, the “ankle swelling (paw diameter) compared to vehicle control” value in data set [3] (all doses tested, over 15 days, FIG. 4) was “significantly inhibited”. In addition, the “paw weight gain (edema/inflammation) compared to vehicle control” value in data set [3] (all doses, after 15 days, FIG. 6) was “significantly inhibited”. Further, the “histopathology of the gut (necrosis and inflammation scored) compared with dexamethasone” value in data set [4] (30 mg/kg, FIG. 10) is “significantly more efficacious than dexamethasone”. The “small intestine weight gain as a result of edema/inflammation” value in data set [4] (3, 10 and 30 mg/kg, after 4 days, FIG. 9) was “significantly inhibited”. Further, in data set [4] (setting [6]), the “inhibition of gross lesion score compared with dexamethasone” value is recorded as “significantly better than dexamethasone”. Moreover, the “inhibition of intestinal inflammation and edema, small intestine necrosis and inflammation compared with dexamethasone” value in data set [4] (setting [6]) is “significantly better than dexamethasone”. In data set [4] (all doses (1, 3, 10, 30 mg/kg), after 4 days, FIG. 8), the “gross lesion score (small intestine)” value is listed as “significantly inhibited”. Also, the “inhibition of disease (gut score and weight and microscopic changes)” value in data set [4] (once daily dosing at 10 mg/kg) was “significant inhibition”. Moreover, in data set [1], the paw weight result is “significantly inhibit”. The “activity compared with indomethacin” value in data set [1] is “superior to the positive control indomethacin”. For the same compound, the “selectivity for MEK in vivo” value in data set [5] was “selective inhibitor of MEK in vivo”.

(Values after patent publication US7538120B2, “Method of treating inflammatory diseases” (Array Biopharma Inc., priority 2003, dated 2009).)
